Experimental data: patent publication US20090325287A1, “Methods for Obtaining High Viable Cell Density in Mammalian Cell Culture” (priority 2008, published 2009)

Key:
caspase 3 = test: Flow cytometry with FITC-labeled anti-caspase 3 antibody after staurosporine treatment; format: cell-based, Chinese Hamster; details: staurosporine 2 μM, 16 h
Method: About 1×10^6 cells from exponential cultures were withdrawn from each shake flask into 24 well plates, incubated with Staurosporine (2 μM fc) for 16 h, harvested and washed once in PBS. The cells were then incubated with CytoPerm (Cat. No. 2075KK, BD BioScience) to fix and permeablized them. Following a PBS wash, cells were incubated with FITC-labeled anti-caspase3 (Cat. No. 68654, BD BioScience) antibody before subjecting them to analysis by flow cytometry.
Each apoptotic^R cell line was examined for caspase 3/7 activity by APO-ONE as this activity provides an indication of the degree of resistance of a cell line to apoptosis. Briefly, in this assay, the profluorescent substrate Z-DEVD-R110 is cleaved by caspase 3/7 in a dose-dependent manner. Exponential cultures of EA167 and EAX197 as well as the control cell line were treated with staurosporine for 16 hours to induce apoptosis, following which caspase 3/7 was measured. The caspase 3/7 activity in staurosporine treated control cells was arbitrarily set at 100%. […] As further evidence of the apoptotic^R nature of EA167 and EAX197, staurosporine-treated cultures of these two cell lines and the control cell line, were labeled with FITC-conjugated anti-caspase 3 antibody followed by analysis by flow cytometry. […] However, 91% of the control cell population was positive for caspase 3 following staurosporine treatment. In contrast, only 9% of the population derived from cell line EAX197 and 30% of that derived from cell line EA167 were positive for caspase 3, confirming the apoptotic^R phenotype of these two cell lines.

caspase 3/7 = test: Caspase 3/7 activity assay (APO-ONE) after staurosporine treatment; format: cell-based, Chinese Hamster; details: staurosporine 2 μM, 16 h
Method: About 3×10^5 cells of each clone were seeded in one ml of growth medium in a 24-well plate. On day 4 (d4) post seeding, about 1×10^5 cells were transferred in triplicate to a 96 well plate. Staurosprine (2 μM fc) was added and the cells were incubated for 16 h before assaying for caspase3/7 activity by APO-ONE kit (BD Labs). The procedure was repeated on d10, except that Staurosporine was omitted. […] The apoptotic^R nature of the selected clones was confirmed by flow cytometry analysis (see below) and in some instances, by measuring the mitochondrial membrane potential.
Each apoptotic^R cell line was examined for caspase 3/7 activity by APO-ONE as this activity provides an indication of the degree of resistance of a cell line to apoptosis. Briefly, in this assay, the profluorescent substrate Z-DEVD-R110 is cleaved by caspase 3/7 in a dose-dependent manner. Exponential cultures of EA167 and EAX197 as well as the control cell line were treated with staurosporine for 16 hours to induce apoptosis, following which caspase 3/7 was measured. The caspase 3/7 activity in staurosporine treated control cells was arbitrarily set at 100%. […] As further evidence of the apoptotic^R nature of EA167 and EAX197, staurosporine-treated cultures of these two cell lines and the control cell line, were labeled with FITC-conjugated anti-caspase 3 antibody followed by analysis by flow cytometry. […]

In the case of CN[C@@H]1C[C@H]2O[C@@](C)([C@@H]1OC)n1c3ccccc3c3c4c(c5c6ccccc6n2c5c31)C(=O)NC4 [staurosporine], the “cell population positive for caspase 3” value (caspase 3; EA167 cells) was 30%, the “cell population positive for caspase 3” value (caspase 3; EAX197 cells) was 9% and the “cell population positive for caspase 3” value (caspase 3; control cell line (CHOK1SV, C1013A)) was 91%. The “caspase 3/7 activity, of staurosporine treated control cells (set at 100%)” value (caspase 3/7; EA167 cells (CHOK1SV expressing E1B-19K + Aven)) was 30% and the “caspase 3/7 activity, of staurosporine treated control cells (set at 100%)” value (caspase 3/7; EAX197 cells (CHOK1SV expressing E1B-19K + Aven + XIAPΔ)) was 35%.
